Results on five compounds are retold here after PubChem BioAssay AID1963845 (Molecular Pharmacology Branch, DTP, NCI, 2024).
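Further: luminescence signal used as surrogate measure of viable cells; spheroids exposed to compounds for seven days before readout; 100% = DMSO vehicle control viability as luminescence relative to vehicle.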

The test system of the first assay is 429239-143-T-J1-PDC complex spheroid viability. Briefly: Anticancer human tumor 429239-143-T-J1-PDC patient-derived small cell lung carcinoma cell line growth inhibition [POLQ]. Conditions: second compound 10 µM; first compound 0.0316 µM; hits give low values. The essentials:
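PDC + HUVEC + MSC complex spheroids; POLQ inhibitors ± partner drugs; top conc. at/near clinical Cmax, else 10 microM (SN-38 1 microM), half-log dilutions; 37 degrees C, 5% CO2.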
In the case of `CCc1cc2c(N3CCc4c(cc(Cn5ccnc5)cc4-c4cn(C)nc4C(F)(F)F)C3=O)ccnc2c(OC)n1` + Cc1cccc(N(C)C(=O)C2C(O)CCN2c2nc(C)cc(C(F)(F)F)c2C#N)c1, the viability, T/C was 111%.
In the case of `COc1ccc([C@@H](O)c2cc(-c3ncnc4cc(N5CCOCC5)ccc34)c(F)cc2Cl)nn1` + Cc1cccc(N(C)C(=O)C2C(O)CCN2c2nc(C)cc(C(F)(F)F)c2C#N)c1, the viability, T/C was 122%.

The assay is the same for the next values; noted with them: second compound 10 µM; first compound 0.1 µM; hits give low values.
Turning to `C=CC(=O)N1CCN(c2nc(=O)n(-c3c(C)ccnc3C(C)C)c3nc(-c4c(O)cccc4F)c(F)cc23)C(C)C1` (configuration not stated) + Cc1cccc(N(C)C(=O)C2C(O)CCN2c2nc(C)cc(C(F)(F)F)c2C#N)c1, the viability, T/C was 85.3%.
Take `CC(C)n1c(=O)n(C)c2cnc3cc(F)c(-c4ccc(OCCCN5CCCCC5)nc4)cc3c21` + Cc1cccc(N(C)C(=O)C2C(O)CCN2c2nc(C)cc(C(F)(F)F)c2C#N)c1: the viability, T/C was 88.9%.
Same read-out and setting: next, `CCc1cc2c(N3CCc4c(cc(Cn5ccnc5)cc4-c4cn(C)nc4C(F)(F)F)C3=O)cc(C)nc2c(OC)n1` + Cc1cccc(N(C)C(=O)C2C(O)CCN2c2nc(C)cc(C(F)(F)F)c2C#N)c1: 98.9%.
On the same count and under the same terms, next, `CCc1cc2c(N3CCc4c(cc(Cn5ccnc5)cc4-c4cn(C)nc4C(F)(F)F)C3=O)ccnc2c(OC)n1` + Cc1cccc(N(C)C(=O)C2C(O)CCN2c2nc(C)cc(C(F)(F)F)c2C#N)c1: 91.8%.
Same read-out and setting: then `COc1ccc([C@@H](O)c2cc(-c3ncnc4cc(N5CCOCC5)ccc34)c(F)cc2Cl)nn1` + Cc1cccc(N(C)C(=O)C2C(O)CCN2c2nc(C)cc(C(F)(F)F)c2C#N)c1, with 86.7%.

The assay is the same for the next values; noted with them: second compound 10 µM; first compound 0.316 µM; hits give low values.
For `C=CC(=O)N1CCN(c2nc(=O)n(-c3c(C)ccnc3C(C)C)c3nc(-c4c(O)cccc4F)c(F)cc23)C(C)C1` (configuration not stated) + Cc1cccc(N(C)C(=O)C2C(O)CCN2c2nc(C)cc(C(F)(F)F)c2C#N)c1, the viability, T/C was 94.4%.
With `CC(C)n1c(=O)n(C)c2cnc3cc(F)c(-c4ccc(OCCCN5CCCCC5)nc4)cc3c21` + Cc1cccc(N(C)C(=O)C2C(O)CCN2c2nc(C)cc(C(F)(F)F)c2C#N)c1, the viability, T/C is 83.3%.
Consider `CCc1cc2c(N3CCc4c(cc(Cn5ccnc5)cc4-c4cn(C)nc4C(F)(F)F)C3=O)cc(C)nc2c(OC)n1` + Cc1cccc(N(C)C(=O)C2C(O)CCN2c2nc(C)cc(C(F)(F)F)c2C#N)c1, for which the viability, T/C was 85.3%.
The same measure, in the same setting: next, `CCc1cc2c(N3CCc4c(cc(Cn5ccnc5)cc4-c4cn(C)nc4C(F)(F)F)C3=O)ccnc2c(OC)n1` + Cc1cccc(N(C)C(=O)C2C(O)CCN2c2nc(C)cc(C(F)(F)F)c2C#N)c1: 104%.
The same measure, in the same setting: then `COc1ccc([C@@H](O)c2cc(-c3ncnc4cc(N5CCOCC5)ccc34)c(F)cc2Cl)nn1` + Cc1cccc(N(C)C(=O)C2C(O)CCN2c2nc(C)cc(C(F)(F)F)c2C#N)c1, with 89.5%.

Staying with this assay, now noted: second compound 10 µM; first compound 1 µM; hits give low values.
As to `C=CC(=O)N1CCN(c2nc(=O)n(-c3c(C)ccnc3C(C)C)c3nc(-c4c(O)cccc4F)c(F)cc23)C(C)C1` (configuration not stated) + Cc1cccc(N(C)C(=O)C2C(O)CCN2c2nc(C)cc(C(F)(F)F)c2C#N)c1, the viability, T/C was 97.9%.
Still for that read-out and setting: then `CC(C)n1c(=O)n(C)c2cnc3cc(F)c(-c4ccc(OCCCN5CCCCC5)nc4)cc3c21` + Cc1cccc(N(C)C(=O)C2C(O)CCN2c2nc(C)cc(C(F)(F)F)c2C#N)c1, with 89.1%.
The same measure, in the same setting: then `CCc1cc2c(N3CCc4c(cc(Cn5ccnc5)cc4-c4cn(C)nc4C(F)(F)F)C3=O)cc(C)nc2c(OC)n1` + Cc1cccc(N(C)C(=O)C2C(O)CCN2c2nc(C)cc(C(F)(F)F)c2C#N)c1, with 82.5%; and `CCc1cc2c(N3CCc4c(cc(Cn5ccnc5)cc4-c4cn(C)nc4C(F)(F)F)C3=O)ccnc2c(OC)n1` + Cc1cccc(N(C)C(=O)C2C(O)CCN2c2nc(C)cc(C(F)(F)F)c2C#N)c1, with 96.5%.
On the same count and under the same terms, next, `COc1ccc([C@@H](O)c2cc(-c3ncnc4cc(N5CCOCC5)ccc34)c(F)cc2Cl)nn1` + Cc1cccc(N(C)C(=O)C2C(O)CCN2c2nc(C)cc(C(F)(F)F)c2C#N)c1: 64.3%.

Still in this assay, the particulars now being: second compound 10 µM; first compound 3.16 µM; hits give low values.
Regarding `C=CC(=O)N1CCN(c2nc(=O)n(-c3c(C)ccnc3C(C)C)c3nc(-c4c(O)cccc4F)c(F)cc23)C(C)C1` (configuration not stated) + Cc1cccc(N(C)C(=O)C2C(O)CCN2c2nc(C)cc(C(F)(F)F)c2C#N)c1, the viability, T/C is 102%.
Same read-out and setting: then `CC(C)n1c(=O)n(C)c2cnc3cc(F)c(-c4ccc(OCCCN5CCCCC5)nc4)cc3c21` + Cc1cccc(N(C)C(=O)C2C(O)CCN2c2nc(C)cc(C(F)(F)F)c2C#N)c1, with 83.4%; and `CCc1cc2c(N3CCc4c(cc(Cn5ccnc5)cc4-c4cn(C)nc4C(F)(F)F)C3=O)cc(C)nc2c(OC)n1` + Cc1cccc(N(C)C(=O)C2C(O)CCN2c2nc(C)cc(C(F)(F)F)c2C#N)c1, with 63.3%.
The same measure, in the same setting: next, `CCc1cc2c(N3CCc4c(cc(Cn5ccnc5)cc4-c4cn(C)nc4C(F)(F)F)C3=O)ccnc2c(OC)n1` + Cc1cccc(N(C)C(=O)C2C(O)CCN2c2nc(C)cc(C(F)(F)F)c2C#N)c1: 72.2%.
Still for that read-out and setting: then `COc1ccc([C@@H](O)c2cc(-c3ncnc4cc(N5CCOCC5)ccc34)c(F)cc2Cl)nn1` + Cc1cccc(N(C)C(=O)C2C(O)CCN2c2nc(C)cc(C(F)(F)F)c2C#N)c1, with 57.1%.

The assay is the same for the next values; noted with them: second compound 10 µM; first compound 10 µM; hits give low values.
In the case of `C=CC(=O)N1CCN(c2nc(=O)n(-c3c(C)ccnc3C(C)C)c3nc(-c4c(O)cccc4F)c(F)cc23)C(C)C1` (configuration not stated) + Cc1cccc(N(C)C(=O)C2C(O)CCN2c2nc(C)cc(C(F)(F)F)c2C#N)c1, the viability, T/C is 100%.
Consider `CC(C)n1c(=O)n(C)c2cnc3cc(F)c(-c4ccc(OCCCN5CCCCC5)nc4)cc3c21` + Cc1cccc(N(C)C(=O)C2C(O)CCN2c2nc(C)cc(C(F)(F)F)c2C#N)c1, for which the viability, T/C was 53.6%.
In the case of `CCc1cc2c(N3CCc4c(cc(Cn5ccnc5)cc4-c4cn(C)nc4C(F)(F)F)C3=O)cc(C)nc2c(OC)n1` + Cc1cccc(N(C)C(=O)C2C(O)CCN2c2nc(C)cc(C(F)(F)F)c2C#N)c1, the viability, T/C is 28.6%.
Regarding `CCc1cc2c(N3CCc4c(cc(Cn5ccnc5)cc4-c4cn(C)nc4C(F)(F)F)C3=O)ccnc2c(OC)n1` + Cc1cccc(N(C)C(=O)C2C(O)CCN2c2nc(C)cc(C(F)(F)F)c2C#N)c1, the viability, T/C was 46.1%.
Same read-out and setting: then `COc1ccc([C@@H](O)c2cc(-c3ncnc4cc(N5CCOCC5)ccc34)c(F)cc2Cl)nn1` + Cc1cccc(N(C)C(=O)C2C(O)CCN2c2nc(C)cc(C(F)(F)F)c2C#N)c1, with 8.38%.
